According to patent US10562887B2, “Triazolones and tetrazolones as inhibitors of ROCK” (BRISTOL-MYERS SQUIBB COMPANY, priority 2016, dated 2020):

Molecular target: ROCK2 (Homo sapiens (Human), UniProt O75116)
Test: ROCK2 assay (peptide phosphorylation, LABCHIP 3000 Reader)
Type: biochemical
Details: 5 μM ATP, 1.5 μM peptide substrate
Experimental: The effectiveness of compounds of the present invention as ROCK inhibitors can be determined in a 30 μL, assay containing 20 mM HEPES, pH 7.5, 20 mM MgCl2, 0.015% Brij-35, 4 mM DTT, 5 μM ATP and 1.5 μM peptide substrate (FITC-AHA-AKRRRLSSLRA-OH). Compounds were dissolved in DMSO so that the final concentration of DMSO was <2%, and the reaction was initiated with Rho kinase variants. After incubation, the reaction was terminated by the addition of EDTA and the phosphorylated and non-phosphorylated peptides separated using a LABCHIP® 3000 Reader (Caliper Life Sciences). […] Compounds were tested in dose-response format, and the inhibition of kinase activity was calculated at each concentration of compound. The inhibition data were fit using a curve-fitting program to determine the IC50; i.e., the concentration of compound required to inhibit 50% of kinase activity.
Representative Examples were tested in the ROCK2 assay described above and found having ROCK2 inhibitory activity.

Chain of ROCK2 (O75116 whole entry, species assumed): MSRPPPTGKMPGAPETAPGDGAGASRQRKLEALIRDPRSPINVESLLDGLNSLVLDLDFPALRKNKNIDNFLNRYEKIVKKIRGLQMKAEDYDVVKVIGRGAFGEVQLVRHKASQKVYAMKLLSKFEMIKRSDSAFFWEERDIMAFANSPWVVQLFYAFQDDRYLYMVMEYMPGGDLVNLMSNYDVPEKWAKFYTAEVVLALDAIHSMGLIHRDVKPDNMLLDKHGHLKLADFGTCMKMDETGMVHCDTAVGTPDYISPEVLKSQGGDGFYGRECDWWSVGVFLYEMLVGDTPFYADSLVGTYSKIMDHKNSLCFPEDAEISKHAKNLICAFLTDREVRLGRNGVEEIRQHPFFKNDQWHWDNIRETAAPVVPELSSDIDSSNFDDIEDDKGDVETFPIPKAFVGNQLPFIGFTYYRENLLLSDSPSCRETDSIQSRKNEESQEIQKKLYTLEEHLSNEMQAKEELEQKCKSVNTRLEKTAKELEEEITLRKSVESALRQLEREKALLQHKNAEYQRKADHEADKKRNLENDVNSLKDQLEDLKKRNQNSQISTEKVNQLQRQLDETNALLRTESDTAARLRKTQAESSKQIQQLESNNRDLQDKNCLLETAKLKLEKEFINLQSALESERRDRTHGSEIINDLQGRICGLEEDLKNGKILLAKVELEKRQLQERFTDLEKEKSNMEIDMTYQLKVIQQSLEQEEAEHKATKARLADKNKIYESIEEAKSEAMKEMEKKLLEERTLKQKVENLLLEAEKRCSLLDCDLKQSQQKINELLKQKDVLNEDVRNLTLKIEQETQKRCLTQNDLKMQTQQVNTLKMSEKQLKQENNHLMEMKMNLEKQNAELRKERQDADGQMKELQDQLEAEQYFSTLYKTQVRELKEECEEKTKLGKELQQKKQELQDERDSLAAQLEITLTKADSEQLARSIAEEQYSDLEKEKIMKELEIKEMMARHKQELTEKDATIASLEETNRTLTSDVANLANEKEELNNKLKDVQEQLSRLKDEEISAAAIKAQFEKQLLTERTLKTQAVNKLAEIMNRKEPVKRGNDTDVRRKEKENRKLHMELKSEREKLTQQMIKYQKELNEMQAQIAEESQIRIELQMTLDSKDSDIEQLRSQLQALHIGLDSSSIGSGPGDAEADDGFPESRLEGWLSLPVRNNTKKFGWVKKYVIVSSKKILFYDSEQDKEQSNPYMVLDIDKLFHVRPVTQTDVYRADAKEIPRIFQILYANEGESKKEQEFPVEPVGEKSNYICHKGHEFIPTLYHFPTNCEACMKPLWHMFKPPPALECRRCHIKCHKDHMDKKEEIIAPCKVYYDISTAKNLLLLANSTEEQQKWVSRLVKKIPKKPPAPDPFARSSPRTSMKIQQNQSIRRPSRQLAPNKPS

## Cc1nn(-c2ccc(-c3cn[nH]c3)cc2)c(=O)n1Cc1cc(F)cc(F)c1 [Example 96, 1-(4-(1H-pyrazol-4-yl)phenyl)-4-(3,5-difluorobenzyl)-3-methyl-1H-1,2,4-triazol-5(4H)-one]
  IC50: 5 to 50 nM

## COc1cc(-n2nc(C)n(CCc3ccccc3)c2=O)ccc1-c1cn[nH]c1 [Example 94, 1-(3-methoxy-4-(1H-pyrazol-4-yl)phenyl)-3-methyl-4-phenethyl-1H-1,2,4-triazol-5(4H)-one]
  IC50: 5 to 50 nM

## CC(C)(O)c1nn(-c2ccc(-c3cn[nH]c3)cc2)c(=O)n1Cc1cc(F)ccc1F [Example 136, 1-(4-(1H-pyrazol-4-yl)phenyl)-4-(2,5-difluorobenzyl)-3-(2-hydroxypropan-2-yl)-1H-1,2,4-triazol-5(4H)-one]
  IC50: 50 to 250 nM

## Cc1nn(C(C)c2ccccc2)c(=O)n1-c1ccc(-c2cn[nH]c2)cc1 (stereo not shown) [Example 73, 4-(4-(1H-pyrazol-4-yl)phenyl)-3-methyl-1-(1-phenylethyl)-1H-1,2,4-triazol-5(4H)-one]
  IC50: 250 to 2000 nM

## O=c1n(Cc2ccccc2Cl)nnn1-c1ccc(-c2cn[nH]c2)cc1 [Example 177, 1-(4-(1H-pyrazol-4-yl)phenyl)-4-(2-chlorobenzyl)-1H-tetrazol-5(4H)-one]
  IC50: 50 to 250 nM

## O=c1n(-c2ccc(-c3cn[nH]c3)cc2)cnn1Cc1cccc(F)c1 [Example 1, 4-(4-(1H-pyrazol-4-yl)phenyl)-1-(3-fluorobenzyl)-1H-1,2,4-triazol-5(4H)-one]
  IC50: 50 to 250 nM

## O=c1n(Cc2ccccc2F)cnn1-c1ccc(-c2cn[nH]c2)cc1 [Example 28, 1-(4-(1H-pyrazol-4-yl)phenyl)-4-(2-fluorobenzyl)-1H-1,2,4-triazol-5(4H)-one]
  IC50: 5 to 50 nM

## COc1cc(-n2cnn(Cc3cccc(F)c3)c2=O)ccc1-c1cn[nH]c1 [Example 7, 1-(3-fluorobenzyl)-4-(3-methoxy-4-(1H-pyrazol-4-yl)phenyl)-1H-1,2,4-triazol-5(4H)-one]
  IC50: 50 to 250 nM

## O=c1n(-c2ccc(-c3cn[nH]c3)cc2)cnn1Cc1ccccc1 [Example 2, 4-(4-(1H-pyrazol-4-yl)phenyl)-1-benzyl-1H-1,2,4-triazol-5(4H)-one]
  IC50: 50 to 250 nM

## COc1cccc(Cn2cnn(-c3ccc(-c4ccnc(N)n4)cc3)c2=O)c1 [Example 170, 1-(4-(2-aminopyrimidin-4-yl)phenyl)-4-(3-methoxybenzyl)-1H-1,2,4-triazol-5(4H)-one]
  IC50: 5 to 50 nM

## COc1cc(-n2nc(C)n(Cc3cc(F)cc(F)c3)c2=O)ccc1-c1cn[nH]c1 [Example 99, 4-(3,5-difluorobenzyl)-1-(3-methoxy-4-(1H-pyrazol-4-yl)phenyl)-3-methyl-1H-1,2,4-triazol-5(4H)-one]
  IC50: 5 to 50 nM

## COc1cc(F)cc(Cn2c(C)nn(-c3ccc(-c4cn[nH]c4)cc3)c2=O)c1 [Example 83, 1-(4-(1H-pyrazol-4-yl)phenyl)-4-(3-fluoro-5-methoxybenzyl)-3-methyl-1H-1,2,4-triazol-5(4H)-one]
  IC50: < 5 nM

## COc1ccc(F)cc1Cn1cnn(-c2ccc(-c3cn[nH]c3)cc2)c1=O [Example 52, 1-(4-(1H-pyrazol-4-yl)phenyl)-4-(5-fluoro-2-methoxybenzyl)-1H-1,2,4-triazol-5(4H)-one]
  IC50: 250 to 2000 nM

## N#Cc1cccc(Cn2cnn(-c3ccc(-c4cn[nH]c4)cc3)c2=O)c1 [Example 34, 3-((1-(4-(1H-pyrazol-4-yl)phenyl)-5-oxo-1H-1,2,4-triazol-4(5H)-yl)methyl)benzonitrile]
  IC50: 50 to 250 nM

## CCc1cc(-n2ncn(Cc3c(F)cccc3F)c2=O)ccc1-c1cn[nH]c1 [Example 57, 4-(2,6-difluorobenzyl)-1-(3-ethyl-4-(1H-pyrazol-4-yl)phenyl)-1H-1,2,4-triazol-5(4H)-one]
  IC50: 250 to 2000 nM

## COc1cc(-n2cnn(CCc3ccccc3)c2=O)ccc1-c1cn[nH]c1 [Example 9, 4-(3-methoxy-4-(1H-pyrazol-4-yl)phenyl)-1-phenethyl-1H-1,2,4-triazol-5(4H)-one]
  IC50: 50 to 250 nM

## COc1cc(F)cc(Cn2c(C(C)(C)O)nn(-c3ccc(-c4cn[nH]c4)cc3)c2=O)c1 [Example 145, 1-(4-(1H-pyrazol-4-yl)phenyl)-4-(3-fluoro-5-methoxybenzyl)-3-(2-hydroxypropan-2-yl)-1H-1,2,4-triazol-5(4H)-one]
  IC50: 5 to 50 nM

## COc1cc(-n2nc(C)n(Cc3cccc(C#N)c3)c2=O)ccc1-c1cn[nH]c1 [Example 97, 3-((1-(3-methoxy-4-(1H-pyrazol-4-yl)phenyl)-3-methyl-5-oxo-1H-1,2,4-triazol-4(5H)-yl)methyl)benzonitrile]
  IC50: 50 to 250 nM

## COc1cc(F)cc(Cn2nnn(-c3ccc(-c4cn[nH]c4)c(OC)c3)c2=O)c1 [Example 182, 1-(3-fluoro-5-methoxybenzyl)-4-(3-methoxy-4-(1H-pyrazol-4-yl)phenyl)-1H-tetrazol-5(4H)-one]
  IC50: 5 to 50 nM

## Cc1nn(-c2ccc(-c3cn[nH]c3)cc2)c(=O)n1Cc1ccccc1Cl [Example 86, 1-(4-(1H-pyrazol-4-yl)phenyl)-4-(2-chlorobenzyl)-3-methyl-1H-1,2,4-triazol-5(4H)-one]
  IC50: 5 to 50 nM

## COc1cccc(Cn2c(C)nn(-c3ccc(-c4ccnc(N)c4)cc3)c2=O)c1 [Example 161, 1-(4-(2-aminopyridin-4-yl)phenyl)-4-(3-methoxybenzyl)-3-methyl-1H-1,2,4-triazol-5(4H)-one]
  IC50: 50 to 250 nM

## COc1cccc(Cn2ncn(-c3ccc(-c4cn[nH]c4)cc3)c2=O)c1 [Example 3, 4-(4-(1H-pyrazol-4-yl)phenyl)-1-(3-methoxybenzyl)-1H-1,2,4-triazol-5(4H)-one]
  IC50: 50 to 250 nM

## COc1cc(-n2cnn(C(C)c3ccccc3)c2=O)ccc1-c1cn[nH]c1 (stereo not shown) [Example 8, 4-(3-methoxy-4-(1H-pyrazol-4-yl)phenyl)-1-(1-phenylethyl)-1H-1,2,4-triazol-5(4H)-one]
  IC50: 250 to 2000 nM

## COc1cc(-n2c(C)nn(Cc3cc(F)ccc3F)c2=O)ccc1-c1cn[nH]c1 [Example 68, 1-(2,5-difluorobenzyl)-4-(3-methoxy-4-(1H-pyrazol-4-yl)phenyl)-3-methyl-1H-1,2,4-triazol-5(4H)-one]
  IC50: 250 to 2000 nM

## COc1cc(-n2ncn(Cc3ccccc3F)c2=O)ccc1-c1cn[nH]c1 [Example 31, 4-(2-fluorobenzyl)-1-(3-methoxy-4-(1H-pyrazol-4-yl)phenyl)-1H-1,2,4-triazol-5(4H)-one]
  IC50: 5 to 50 nM

## CCc1cc(-n2ncn(C(C)c3ccccc3)c2=O)ccc1-c1cn[nH]c1 (stereo not shown) [Example 58, 1-(3-ethyl-4-(1H-pyrazol-4-yl)phenyl)-4-(1-phenylethyl)-1H-1,2,4-triazol-5(4H)-one]
  IC50: 5 to 50 nM

## COc1cc(-n2nnn(Cc3ccccc3)c2=O)ccc1-c1cn[nH]c1 [Example 179, 1-benzyl-4-(3-methoxy-4-(1H-pyrazol-4-yl)phenyl)-1H-tetrazol-5(4H)-one]
  IC50: 50 to 250 nM

## COc1cc(-c2cn[nH]c2)ccc1-n1cnn(Cc2ccccc2)c1=O [Example 10, 1-benzyl-4-(2-methoxy-4-(1H-pyrazol-4-yl)phenyl)-1H-1,2,4-triazol-5(4H)-one]
  IC50: 250 to 2000 nM

## O=c1n(Cc2cc(F)ccc2F)cnn1-c1ccc(-c2cn[nH]c2)cc1 [Example 20, 1-(4-(1H-pyrazol-4-yl)phenyl)-4-(2,5-difluorobenzyl)-1H-1,2,4-triazol-5(4H)-one]
  IC50: 5 to 50 nM

## COc1cc(-n2c(C)nn(Cc3cccc(F)c3)c2=O)ccc1-c1cn[nH]c1 [Example 65, 1-(3-fluorobenzyl)-4-(3-methoxy-4-(1H-pyrazol-4-yl)phenyl)-3-methyl-1H-1,2,4-triazol-5(4H)-one]
  IC50: 250 to 2000 nM

## COc1cc(-n2ncn(Cc3cc(F)cc(F)c3)c2=O)ccc1-c1cn[nH]c1 [Example 36, 4-(3,5-difluorobenzyl)-1-(3-methoxy-4-(1H-pyrazol-4-yl)phenyl)-1H-1,2,4-triazol-5(4H)-one]
  IC50: 5 to 50 nM

## COc1cccc(Cn2c(CN3CCC(O)C3)nn(-c3ccc(-c4cn[nH]c4)cc3)c2=O)c1 (stereo not shown) [Example 156, 1-(4-(1H-pyrazol-4-yl)phenyl)-3-((3-hydroxypyrrolidin-1-yl)methyl)-4-(3-methoxybenzyl)-1H-1,2,4-triazol-5(4H)-one]
  IC50: 5 to 50 nM

## COc1cc(-n2nc(C)n(Cc3ccc(F)cc3)c2=O)ccc1-c1cn[nH]c1 [Example 101, 4-(4-fluorobenzyl)-1-(3-methoxy-4-(1H-pyrazol-4-yl)phenyl)-3-methyl-1H-1,2,4-triazol-5(4H)-one]
  IC50: 5 to 50 nM

## COc1cc(-n2nc(C)n(Cc3c(F)cccc3F)c2=O)ccc1-c1cn[nH]c1 [Example 98, 4-(2,6-difluorobenzyl)-1-(3-methoxy-4-(1H-pyrazol-4-yl)phenyl)-3-methyl-1H-1,2,4-triazol-5(4H)-one]
  IC50: 5 to 50 nM

## Cc1nn(-c2ccc(-c3cn[nH]c3)cc2)c(=O)n1Cc1ccccc1F [Example 87, 2-(4-(1H-pyrazol-4-yl)phenyl)-4-(2-fluorobenzyl)-5-methyl-2,4-dihydro-3H-1,2,4-triazol-3-one]
  IC50: 5 to 50 nM

## COc1cccc(C(C)n2cnn(-c3ccc(-c4cn[nH]c4)cc3)c2=O)c1 (single isomer, unassigned) [Example 47, 1-(4-(1H-pyrazol-4-yl)phenyl)-4-(1-(3-methoxyphenyl)ethyl)-1H-1,2,4-triazol-5(4H)-one]
  IC50: 5 to 50 nM

## CCc1cc(-n2ncn(Cc3cccc(OC(F)F)c3)c2=O)ccc1-c1cn[nH]c1 [Example 46, 4-(3-(difluoromethoxy)benzyl)-1-(3-ethyl-4-(1H-pyrazol-4-yl)phenyl)-1H-1,2,4-triazol-5(4H)-one]
  IC50: 50 to 250 nM
